This is an account of results in patent US7169818B2, “Lysophosphatidic acid receptor agonists and antagonists” (University of Virginia Patent Foundation, priority 2000, dated 2007).

For test [1], the target named is human LPA2 (Homo sapiens, UniProt Q9HBW0). Kind of test: GTP[γ35S] binding, LPA2-transfected HEK293T cell membranes. In kind it is biochemical. Further details: expressed in transfected cells; host or cells: HEK293T (transient). The note with it: for EC50: agonist activity, read-out: LP A2 EC50; for antagonist activity at LPA2: block of LPA-induced GTP[γ35S] binding. As to the method: (§1) The appropriate receptor plasmid DNA (encoding mouse LPA1, human LPA2 or human LPA3) was mixed with equal amounts of expression plasmids (pcDNA3) encoding a mutated (C351F) rat Gi2a, cow β1, and γ2 proteins and these DNAs were used to transfect monolayers of HEK293T cells (where ‘T’ indicates expression of the SV-40 virus large T antigen) using the calcium phosphate precipitate method. After about 60 hours, cells were harvested, membranes were prepared, aliquoted and stored at −70° C. until use.
(§2) The GTP[35 γS] assay was performed as described by us previously. Membranes containing 5 ug of protein were incubated in 0.1 ml GTP-binding buffer (in mM: HEPES 50, NaCl 100, MgCl2 10, pH7.5) containing […], […], 0.1 nM GTP[35 γS] (1200 Ci/mmol), and indicated lipid(s) for 30 minutes at 30° C. Samples were analyzed for membrane-bound radionuclide using a Brandel Cell Harvester (Gaithersburg, Md.).
(§3) Membranes prepared from these cells are used to measure GTPγ[^35S] binding as a function of test compound concentration. The resulting dose-response curves provide relative potency (EC50) and efficacy (Emax) for the test compounds.

The target of test [2] is T1, human LPA3 (Homo sapiens, UniProt Q9UBY5).
T1 sequence (Q9UBY5 1-353): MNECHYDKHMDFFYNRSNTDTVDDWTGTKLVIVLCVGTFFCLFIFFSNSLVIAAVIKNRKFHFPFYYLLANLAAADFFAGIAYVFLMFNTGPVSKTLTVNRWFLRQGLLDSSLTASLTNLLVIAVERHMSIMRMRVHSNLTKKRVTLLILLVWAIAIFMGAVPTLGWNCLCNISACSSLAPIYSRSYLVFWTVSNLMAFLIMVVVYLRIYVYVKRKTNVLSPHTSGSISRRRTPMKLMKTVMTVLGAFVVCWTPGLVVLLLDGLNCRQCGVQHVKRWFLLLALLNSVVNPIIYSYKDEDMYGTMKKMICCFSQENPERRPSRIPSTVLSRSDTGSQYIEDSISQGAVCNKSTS
Put plainly: GTP[γ35S] binding, LPA3-transfected HEK293T cell membranes. Also on record: expressed in transfected cells; host or cells: HEK293T (transient). In kind it is biochemical. The note with it: for EC50: agonist activity, read-out: LP A3 EC50; for LP A3 Emax: efficacy compared to LPA (LPA = 100). The procedure:
as §1, §2
(§4) The X-intercept of the linear transformation is equal to the inverse log of the KI.
as §3
For orientation: Binding of GTPγS marks nucleotide exchange on a G protein.

The target in test [3] is T2, LPP3 (PAP2b) (Homo sapiens, UniProt O14495).
T2 sequence (O14495 1-311): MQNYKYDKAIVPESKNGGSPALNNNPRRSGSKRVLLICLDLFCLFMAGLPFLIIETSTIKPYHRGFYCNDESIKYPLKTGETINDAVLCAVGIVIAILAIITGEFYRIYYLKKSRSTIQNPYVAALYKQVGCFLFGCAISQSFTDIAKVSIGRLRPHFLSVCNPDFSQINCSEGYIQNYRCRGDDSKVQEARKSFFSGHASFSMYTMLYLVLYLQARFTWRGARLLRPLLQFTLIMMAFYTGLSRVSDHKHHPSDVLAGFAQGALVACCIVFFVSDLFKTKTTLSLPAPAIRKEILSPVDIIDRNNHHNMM
Put plainly: LPP inhibition, competition with [32P]LPA. In kind it is biochemical. The note with it: for rank order of inhibition of the three LPPs: LPP1 (PAP2a), LPP2 (PAP2c), LPP3 (PAP2b). As to the method: NOHPP was also tested for activity at the three cloned LPPs. Although the phosphonate head group eliminates the possibility of NOHPP acting as a substrate, it is possible that the compound could be a competitive inhibitor.

Test [4] concerns the target T3, mouse LPA1 (Mus musculus, UniProt P61793). Kind of test: GTP[γ35S] binding, LPA1-transfected HEK293T (or RH7777) cell membranes. The following applies: for antagonist activity at LPA1: block of LPA-induced GTP[γ35S] binding. In kind it is biochemical. Further details: expressed in transfected cells; host or cells: HEK293T (transient); for part of the results RH7777 membranes. As to the method:
as §1, §2, §4, §3

Test [5] deals with human platelets. The note with it: previously reported; cited from earlier work.
Test [6] relates to Xenopus laevis ooctyes. The following applies: previously reported; cited from earlier work.
Test [7] relates to LPA receptors. Kind of test: whole cell assays of calcium mobilization or inhibition of cAMP accumulation, agonist activity. In kind it is cell-based. The procedure: (§5) Assays for cAMP accumulation were conducted on populations of 5×10^5 cells stimulated with […] in the presence of the phosphodiesterase inhibitor isomethylbutylxanthine (IBMX) for 15 minutes at 30° C. cAMP was measured by automated radioimmunoassay.
A FLIPR™ (Molecular Devices, Inc.) was used to measure intracellular calcium in A431 and HEK293T cells. A431 cells were seeded (˜50,000 cells/well) in 96-well clear bottom black microplates (Corning Costar Corp., Cambridge, Mass.) and left overnight in CO2 incubator at 37° C. HEK293T cells were treated likewise, but seeded onto poly D-lysine coated microplates (Becton Dickinson, Franklin Lakes, N.J.). A431 cells were dye-loaded with 4 μM Fluo-3 AM ester (Molecular Probes Inc., Eugene, Oreg.) in a loading buffer (1×HBSS buffer, pH 7.4, containing 20 mM HEPES, 0.1% BSA, and 2.5 mM probenecid) for 1 hour at 37° C. Cells were then washed four times with the loading buffer and exposed in the FLIPR™ to sets of compounds. HEK293T cells were loaded with 2 μM Fluo-4 AM ester (Molecular Probes Inc., Eugene, Oreg.) in the same loading buffer without probenecid for 30 minutes and washed four times before being exposed to compounds in the FLIPR™. In all cases, each concentration of each compound was tested in at least quintuplicate.

Test [8] addresses T4, human LPA1 (Homo sapiens, UniProt Q92633).
T4 construct: expressed in transfected cells; host or cells: Sf9 insect cells, recombinant baculovirus
Put plainly: GTP[γ35S] binding, baculovirus-infected insect Sf9 cell membrane preparation. In kind it is biochemical. As to the method:
The same activity was determined with human LPA1 using a recombinant baculovirus-infected insect Sf9 cell membrane preparation.

Test [9] has as its system renal injury following ischemia-reperfusion. Put plainly: renal ischemia-reperfusion model. In kind it is in vivo, C57BL6 mice. The following applies: 1 mg/kg/2 hr. The procedure:
C57BL6 mice (20 gm, 8 wks of age) were used for all studies. The surgical protocol of renal IR has been previously described (Okusa et al., 1999. Am J. Physiol. (Renal Physiol.) 277: F404–412; Okusa, et al., 2000 Am. J. Physiol. (Renal Physiol.) 279; F809–F818, and Okusa et al., 2001 Kidney Int. 59:2114–2125). For the injury protocol, bilateral flank incisions were made under anesthesia with a regimen that consists of ketamine (100 mg/kg, ip.), xylazine (10 mg/kg, ip.) and acepromazine (1 mg/kg, im.). Renal pedicles were exposed and cross-clamped for 27–32 min. Kidneys were examined for immediate reperfusion following clamp removal. Wounds were closed and mice were returned to cages. […] The mice were sacrificed and the kidneys harvested at 1, 4, 8, 24, 48 hrs, 5 and 7 days. […] Mice were sacrificed following 24 hrs of reperfusion and plasma was obtained for BUN and creatinine.

In test [10] the target is T3, mouse LPA1. Put plainly: cAMP accumulation in RH7777 cells stably expressing LPA1. In kind it is cell-based. Also on record: expressed in transfected cells. The following applies: RH7777 cells stably expressing LPA1. As to the method:
as §5
Rat hepatoma RH7777 cell monolayers were transfected with the mLPAI plasmid DNA using the calcium phosphate precipitate method and clonal populations expressing the neomycin phosphotransferase gene were selected by addition of geneticin (G418) to the culture media. The RH7777 cells were grown in monolayers at 37° C. in a 5% CO02/95% air atmosphere in growth media consisting of: 90% MEM, 10% fetal bovine serum, 2 mM glutamine and 1 mM sodium pyruvate.
wls-b8L and the other phosphonates were also tested also for activity in three whole cell assays. […] Finally, the activity of wls-b8L in activating a chloride conductance in Xenopus laevis ooctyes was measured.

Where [11] appears, read: efficacy compared to LPA (LPA = 100).

“Also recorded” adds a separate entry of the source.

Chain of human LPA2 (Q9HBW0 whole entry): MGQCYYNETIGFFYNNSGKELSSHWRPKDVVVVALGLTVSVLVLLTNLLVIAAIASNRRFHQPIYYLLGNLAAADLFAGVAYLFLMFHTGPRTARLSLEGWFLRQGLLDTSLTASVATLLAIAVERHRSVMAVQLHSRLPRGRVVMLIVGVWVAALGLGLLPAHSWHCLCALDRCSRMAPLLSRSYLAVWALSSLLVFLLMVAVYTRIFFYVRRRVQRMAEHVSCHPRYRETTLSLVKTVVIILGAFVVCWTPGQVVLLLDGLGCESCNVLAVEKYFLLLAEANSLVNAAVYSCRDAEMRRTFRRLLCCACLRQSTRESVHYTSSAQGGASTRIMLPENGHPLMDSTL
T3 sequence (P61793 whole entry): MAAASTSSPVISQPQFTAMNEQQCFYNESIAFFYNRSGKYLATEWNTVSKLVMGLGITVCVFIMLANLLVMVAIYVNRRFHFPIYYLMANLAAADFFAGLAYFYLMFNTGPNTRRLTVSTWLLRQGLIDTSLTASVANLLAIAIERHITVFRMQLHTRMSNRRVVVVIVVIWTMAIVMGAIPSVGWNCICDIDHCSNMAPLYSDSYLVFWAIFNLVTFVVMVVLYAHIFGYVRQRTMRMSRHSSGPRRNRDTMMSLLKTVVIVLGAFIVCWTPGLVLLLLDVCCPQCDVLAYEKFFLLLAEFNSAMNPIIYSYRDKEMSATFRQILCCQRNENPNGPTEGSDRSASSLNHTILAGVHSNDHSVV
T4 sequence (Q92633 whole entry): as the sequence (P61793 whole entry) above, with A4I, S8I, Q22P, Y40H, V61I, D193E, H194N, V269I, N331S, N335T counted along it

As usually defined, the EC50 is the concentration giving half of the maximal effect. With “1-acyl, 2-hydroxyl-sn-glycerol-3-phosphate [LPA, reference compound]”, the values for the EC50 in test [1] (GTP[γ35S] binding) and in test [2] (GTP[γ35S] binding) were 6.8 nM and 262 nM, respectively. Further, in [2], the “LP A3 Emax” value came to 100.

With `CCCCCCCC/C=C\CCCCCCCC(=O)NCCC(O)P(=O)(O)O` (racemic) [NOHPP, (9Z)-N-(rac-3-hydroxy-3-phosphonopropyl)octadec-9-enamide], in test [3], the “rank order of inhibition of the three LPPs” value was “LPP3>LPP1>>LPP2”. Moreover, the “rank order of inhibition of the three LPPs” value in test [3] (listed as VPC12031) was “markedly better at the PAP2b (LPP3) than PAP2a (LPP1) which in turn is better than PAP2c (LPP2)”. The “inhibition of LPP3” value in test [3] (NOHPP in competition with 50 nM [32P]LPA) is given as “inhibited”. For the same compound, in test [1] (GTP[γ35S] binding), the “agonist activity / efficacy relative to LPA at LPA2” value is on record as “as efficacious as; also recorded: fullly efficacious” and the “agonist potency relative to LPA at LPA2” value was “somewhat less potent than; also recorded: about one log order less potent”. In test [2] (GTP[γ35S] binding), the “agonist activity / efficacy relative to LPA at LPA3” value was “far less efficacious; also recorded: little activity” and the “agonist potency relative to LPA at LPA3” value is reported as “distinctly less potent; also recorded: greater than two log orders less potent”. In test [4] (GTP[γ35S] binding), the “agonist activity / efficacy relative to LPA at LPA1” value is “as efficacious as; also recorded: fullly efficacious” and the “agonist potency relative to LPA at LPA1” value is “somewhat less potent than; also recorded: about one log order less potent”.

For `CCCCCCCCCCCCCCCC(=O)N[C@@H](COP(=O)(O)O)C(=O)O` [NASPA, N-palmitoyl serine phosphate], the “platelet aggregation (literature)” value in test [5] is reported as “antagonize”. For the same compound, the “oocyte depolarization (literature)” value in test [6] is recorded as “antagonize”.

For the compound `CCCCCCCCCCCCCCCC(=O)N[C@@H](CCCC)COP(=O)(O)O` [PNPA, N-palmitoyl-norleucinol-1-phosphate], in test [5], the “platelet aggregation (literature)” value is “aggregates human platelets without regard to stereoselectivity”.

On to `CCCCCCCC/C=C\CCCCCCCC(=O)N[C@@H](COP(=O)(O)O)Cc1ccccc1` [VPC12084], for which, in test [7], the “agonist activity in whole cell assays” value is “appreciable agonist activity”. The “antagonist activity at LPA1” value in [4] is reported as “did block LPA activity”.

Turning to `CCCCCCCC/C=C\CCCCCCCC(=O)N[C@H](C)COP(=O)(O)O` [VPC12086], the “agonist potency relative to LPA at LPA1” value in test [4] (GTP[γ35S] binding) is “more potent than 1-oleoyl LPA; also recorded: more potent and efficacious than LPA”.

Take `CCCCCCCC/C=C\CCCCCCCC(=O)N[C@@H](CC)COP(=O)(O)O` [VPC12115]: the EC50 in test [1] (GTP[γ35S] binding) came out at 4280 nM; in [2] (GTP[γ35S] binding), 4980 nM; in [4] (agonist activity, GTP[γ35S] binding, read-out: LP A1 EC50), 1580 nM. The “LP A2 Emax” value in test [1] (setting [11]) was 85.6. Further, the “LP A3 Emax” value in [2] amounted to 89.3. For the same compound, in test [4] (setting [11]), the “LP A1 Emax” value came to 62.3.

For the compound `CCCCCCCC/C=C\CCCCCCCC(=O)N[C@H](CN)COP(=O)(O)O` [VPC12178], the “agonist potency relative to LPA at LPA1” value in [4] (GTP[γ35S] binding) was “more potent than 1-oleoyl LPA”.

With `CCCCCCCC/C=C\CCCCCCCC(=O)N[C@H](COP(=O)(O)O)Cc1ccc(OCc2ccccc2)cc1` [VPC12249], the “antagonist activity at human LPA1” value in [8] is reported as “same activity”. Further, the “agonist activity in whole cell assays” value in test [7] is recorded as “completely devoid of agonist activity”. Moreover, in [9], the “tissue preservation, H and E sections” value is recorded as “marked degree of tissue preservation”. The “block of the inhibition of forskolin-induced increases in cAMP levels” value in test [10] is given as “inhibited”. Moreover, the “antagonist activity at LPA2” value in test [1] was “lack of antagonist activity”. Further, the “antagonist activity at LPA3” value in test [2] (block of LPA-induced GTP[γ35S] binding) is “surmountable antagonist”. Also, the “antagonist activity at LPA1” value in [4] is reported as “surmountable antagonist”.

`CCCCCCCC/C=C\CCCCCCCC(=O)N[C@H](CO)COP(=O)(O)O` [VPC31143]: in [4] (GTP[γ35S] binding), the “agonist potency relative to LPA at LPA1” value is given as “more potent than 1-oleoyl LPA”.

In the case of `CCCCCCCC/C=C\CCCCCCCC(=O)N[C@@H](COP(=O)(O)O)Cc1ccc(OCc2ccc(CCCCC)cc2)cc1` [VPC31162], the “antagonist activity at LPA2” value in test [1] is recorded as “antagonist activity”. In addition, the “agonist activity / efficacy relative to LPA at LPA3” value in test [2] (GTP[γ35S] binding) is recorded as “agonist”. Besides, in test [4] (GTP[γ35S] binding), the “agonist activity / efficacy relative to LPA at LPA1” value is given as “agonist”.
